Results reported in US8168651B2, “Protein kinase modulators” (Cylene Pharmaceuticals, Inc., priority 2008, dated 2012).

Assays:
[1] = Pharmacokinetics after IV and PO dose in SD rats; type: in vivo; details: for Tmax / half-life / Cmax / Vd: rat, plasma
Description: (§1) The pharmacokinetics properties of drugs were also investigated in SD rats and beagle dogs following an intravenous (IV) bolus and oral (PO) doses of drug using similar methods. Blood samples were collected at predetermined times and the plasma separated.
(§2) Drug levels were quantified by the LC/MS/MS method described below. Noncompartmental pharmacokinetic analysis was applied for intravenous administration. […] The terminal t1/2 and C0 were calculated using the last three and the first three data points, respectively
(§3) Bioanalysis was performed using a Quattro Micro LC/MS/MS instrument in the MRM detection mode, with an internal standard (IS). Briefly, 15 µL plasma samples were prepared for analysis using protein precipitation with 120 μL of acetonitrile. The supernatants were transferred into a 96 well plate and subjected to LC-MS/MS analysis using a Phenomenex Polar-RP HPLC column. The mobile phases were 10 mM NH4HCO3 in water (Solution-A) and 10 mM NH4HCO3 in methanol (Solution-B). […] Quantitation of the analytes was performed in the batch mode with two bracketing calibration curves according to the bioanalytical sample list.

[2] = Pharmacokinetics after IV and PO dose in ICR mice; type: in vivo; details: for half-life: mouse, plasma
Description: […] Blood samples were collected at predetermined times and the plasma separated. Plasma was separated from the blood samples collected at 5, 15 and 30 minutes and 1, 2, 4, 8 and 24 hours post-dose.
Drug levels were quantified by the LC/MS/MS method described below. Noncompartmental pharmacokinetic analysis was applied for intravenous administration. A linear trapezoidal rule was used to compute AUC(0-24). The terminal t1/2 and C0 were calculated using the last three and the first three data points, respectively
as §3

PC-3 xenografts = test: Tumor suppression in PC-3 xenograft animals; type: in vivo, NCr nu/nu mice; details: oral 150 mg/kg
Description: (§4) Animals were handled under laminar-flow hoods.
(§5) Gemzar™ administered at a dose of 80 mg/kg IP Q3D was used as a positive control.

caspase-3 cell staining = test: Caspase-3 staining as biomarker in treated tumors; type: in vivo, mice; details: 60 mg/kg IV
Description: Caspase staining also was assessed as a biomarker for compound A1 treatment of tumors.

[3] = system: A549 (human lung cancer cells) xenograft; test: Tumor suppression in A549 xenograft mice; type: in vivo; details: oral administration
Source text: as §4
The compound was delivered by oral administration for such determinations.

[4] = Distribution of compound in plasma and tumors of animals; type: in vivo, mice
Description: The distribution of compound A1 in the plasma and tumors of animals was assessed.

[5] = Pharmacokinetics after IV and PO dose in beagle dogs; type: in vivo; details: for Cmax / Vd / half-life / Tmax: plasma
Description: as §1, §2, §3

[6] = system: BX-PC3 (human pancreatic cancer cells) xenograft; test: Tumor suppression in BX-PC3 xenograft mice; type: in vivo
MCF-7 xenografts = test: Tumor suppression in MCF-7 xenograft animals; type: in vivo, NCr nu/nu mice; details: oral 100 mg/kg
Description: as §4, §5

MDA-MB-231 xenografts = test: Tumor suppression in MDA-MB-231 xenograft animals; type: in vivo, mice; details: IV 30 and 60 mg/kg and oral 200 mg/kg
Source text: as §4

[7] = Tumor pharmacokinetic studies, IV QDx6; type: in vivo, mice; details: 30 mg/kg IV QD×6
MiaPaca xenografts = test: Tumor suppression in MiaPaca xenograft mice; type: in vivo, NCr nu/nu mice
Description: as §4
Tumor volume measurements (FIG. 3A) and body weight (FIG. 3B) were recorded on days 3, 6, 8, 10, 13 and 15.
as §5

HUVEC cells = test: Human endothelial tube formation assay (BD BioCoat Angiogenesis System); type: cell-based; details: 18 hrs
[8] = Body weight of tumor-bearing xenograft animals; type: in vivo, mice; details: BC-PC3 xenograft; IV or IP dosing, days 1-18
[9] = Sprague-Dawley, IV 2.50 mg/kg, SD rats
[10] = dog, 0.8 mg/kg, IV 0.80 mg/kg, Beagle dogs
[11] = dog, PO 3.80 mg/kg, Beagle dogs
[12] = Sprague-Dawley, PO 8.06 mg/kg, SD-Rats

`O=C(O)c1ccc2c(c1)nc(Nc1cccc(Cl)c1)c1ccncc12` [Compound A1] gave a Tmax ([1]; Sprague-Dawley, po, […]) of 1 h, a half-life ([1]; Sprague-Dawley, po, […]) of 4.5 h and a Cmax [1, 9] of 21.3 µg/mL. For the same compound, the Vd [1, 9] was 2.5 L/kg, the half-life [1, 9] was 9.8 h and the CLs ([2]; IV 5 mg/kg) was 1.5 L/h/kg. For the same compound, the Cp0-exp ([2]; IV 5 mg/kg) was 13201 ng/mL, the Kel ([2]; IV 5 mg/kg) was 0.1586 h⁻¹ and the “F(0-8 h)” value ([2]; PO 25 mg/kg) was 10.9%. For the same compound, the “F(0-inf h)” value ([2]; PO 25 mg/kg) was 18.7%, the Kel ([2]; PO 25 mg/kg) was 0.1076 h⁻¹ and the half-life ([2]; IV 5 mg/kg) was 4.4 h. For the same compound, the half-life ([2]; PO 25 mg/kg) was 6.4 h, the tumor growth (PC-3 xenografts) was “significantly inhibited tumor growth” and the “caspase-3 cell staining levels versus untreated control cells” value (caspase-3 cell staining) was “four-fold greater”. The tumor growth [3] was “significantly inhibited tumor growth”, the “compound identified in plasma” value ([4]; 30 mg/kg IV) was “about 6.8 micromolar” and the “compound identified in tumors” value ([4]; 30 mg/kg IV) was “about 42.9 micromolar”. The “compound identified in plasma” value ([4]; 60 mg/kg IV) was roughly 2.2 µM, the “compound identified in tumors” value ([4]; 60 mg/kg IV) was roughly 7.0 µM and the “compound identified in plasma” value ([4]; 200 mg/kg orally) was roughly 9.5 µM. For the same compound, the “compound identified in tumors” value ([4]; 200 mg/kg orally) was roughly 6.4 µM, the “AUC(0-12 h)” value ([5]; IV 0.80 mg/kg, Beagle dogs) was 349 ng · h · mI^−1 and the “AUC(0-Inf)” value ([5]; IV 0.80 mg/kg, Beagle dogs) was 352 ng · h · mI^−1. For the same compound, the CLs ([5]; IV 0.80 mg/kg, Beagle dogs) was 2.3 L/h/kg, the Cp0-exp ([5]; IV 0.80 mg/kg, Beagle dogs) was 1406 ng/mL and the Kel ([5]; IV 0.80 mg/kg, Beagle dogs) was 0.5546 h⁻¹. For the same compound, the “AUC(0-Inf)” value ([5]; IV MC 0.80 mg/kg, Beagle dogs) was 633 ng · h · mI^−1, the Cmax [5, 10] was 1.04 µg/mL and the Vd [5, 10] was 4.1 L/kg. The half-life [5, 10] was 1.2 h, the Cmax [5, 11] was 0.495 µg/mL and the Tmax [5, 11] was 0.5 h. The half-life [5, 11] was 1.2 h, the tumor growth ([6]; BX-PC3 xenograft mice, oral administration) was “significantly inhibited tumor growth” and the tumor growth (MCF-7 xenografts) was “significantly inhibited tumor growth”.
In the case of `C#Cc1cccc(Nc2nc3cc(C(=O)O)ccc3c3cncnc23)c1` [Compound A2], the “AUC(0-12 h)” value ([1]; IV 1.56 mg/kg, SD Rats) is reported as 39194 ng · h · mI^−1, the “AUC(0-Inf)” value ([1]; IV 1.56 mg/kg, SD Rats) is reported as 36659 ng · h · mI^−1 and the CLs ([1]; IV 1.56 mg/kg, SD Rats) is reported as 0.1 L/h/kg. For the same compound, the Cp0-exp ([1]; IV 1.56 mg/kg, SD Rats) was 47935 ng/mL, the Kel ([1]; IV 1.56 mg/kg, SD Rats) was 0.1215 h⁻¹ and the tl/2 ([1]; IV 1.56 mg/kg, SD Rats) was 5.7 h. The “AUC(0-12 h)” value ([1]; PO 8.06 mg/kg, SD-Rats) was 73945 ng · h · mI^−1, the “AUC(0-Inf)” value ([1]; PO 8.06 mg/kg, SD-Rats) was 80286 ng · h · mI^−1 and the “F(0-8 h)” value ([1]; PO 8.06 mg/kg, SD-Rats) was 31.2%. The “F(0-12 h)” value ([1]; PO 8.06 mg/kg, SD-Rats) was 37.7%, the “F(0-Inf)” value ([1]; PO 8.06 mg/kg, SD-Rats) was 43.8% and the Kel ([1]; PO 8.06 mg/kg, SD-Rats) was 0.1077 h⁻¹. For the same compound, the tl/2 ([1]; PO 8.06 mg/kg, SD-Rats) was 6.4 h, the Cmax ([1]; Sprague-Dawley, IV 1.56 mg/kg, SD Rats) was 34.3 µg/mL and the Cmax [1, 12] was 6.67 µg/mL. For the same compound, the Tmax [1, 12] was 2 h, the Vd ([1]; IV 1.56 mg/kg, SD Rats) was 0.6 L/kg and the tumor progression (MDA-MB-231 xenografts) was “significantly inhibited tumor progression”. For the same compound, the “half life change on repeated dosing” value [7] was “about doubles”, the tumor progression (MiaPaca xenografts; IV 50 and 60 mg/kg and IP 100 mg/kg) was “significantly inhibited tumor progression” and the tumor progression (MiaPaca xenografts; oral 100 mg/kg QD×8 and 200 mg/kg QD×6) was “significantly inhibited tumor progression”. For the same compound, the “AUC(0-12 h)” value ([5]; IV 2.00 mg/kg, Dog) was 1414 ng · h · mI^−1, the “AUC(0-Inf)” value ([5]; IV 2.00 mg/kg, Dog) was 1437 ng · h · mI^−1 and the CLs ([5]; IV 2.00 mg/kg, Dog) was 1.4 L/h/kg. It also gave a Cp0-exp ([5]; IV 2.00 mg/kg, Dog) of 3847 ng/mL, a Kel ([5]; IV 2.00 mg/kg, Dog) of 0.1360 h⁻¹ and a tl/2 ([5]; IV 2.00 mg/kg, Dog) of 5.1 h. It also gave a Cmax ([5]; beagle, IV 2.00 mg/kg, Dog) of 3.07 µg/mL, a Vd ([5]; beagle, IV 2.00 mg/kg, Dog) of 10.2 L/kg and a Cmax ([5]; beagle, PO 7.50 mg/kg, Dog) of 1.21 µg/mL. The Tmax ([5]; beagle, PO 7.50 mg/kg, Dog) was 1 h, the “tumor progression (FIG. 4A)” value ([6]; BC-PC3 xenograft, 60 mg/kg QD IV, 50 mg/kg BID IV or 100 mg/kg BID IP) was “significantly inhibited tumor progression” and the “concentration range inhibiting tube formation” value (HUVEC cells) was 1 to 5 µM. The “body weight (FIG. 4B)” value [8] was “not significantly altering body weight”.
